Measurements: BindingDB's records for doi:10.1021/acs.jmedchem.9b00742 (Leiden University, 2019)

How the values were obtained:
[1] = target: T1, C-C chemokine receptor type 5 (Homo sapiens, UniProt P51681); test: Non-competitive insurmountable antagonist activity at human CCR5 expressed in human U2OS cell membranes assessed as pEC50 for CCL3-stimulated [35S]GTPgammaS binding at 100 nM preincubated for 30 mins followed by [35S]GTPgammaS addition and measured after 90 mins (Rvb = 8.42 +/- 0.06 No_unit)
[2] = target: T1, C-C chemokine receptor type 5; test: Non-competitive insurmountable antagonist activity at human CCR5 expressed in human U2OS cell membranes assessed as pEC50 for CCL3-stimulated [35S]GTPgammaS binding at 300 nM preincubated for 30 mins followed by [35S]GTPgammaS addition and measured after 90 mins (Rvb = 8.42 +/- 0.06 No_unit)
[3] = target: T2, C-C chemokine receptor type 2 (Homo sapiens, UniProt P41597); test: Non-competitive insurmountable antagonist activity at human CCR2 expressed in human U2OS cell membranes assessed as pEC50 for CCL2-stimulated [35S]GTPgammaS binding at 10 nM preincubated for 30 mins followed by [35S]GTPgammaS addition and measured after 90 mins (Rvb = 8.10 +/- 0.06 No_unit)
[4] = target: T1, C-C chemokine receptor type 5; test: Non-competitive insurmountable antagonist activity at human CCR5 expressed in human U2OS cell membranes assessed as EC50 for CCL3-stimulated [35S]GTPgammaS binding at 100 nM preincubated for 30 mins followed by [35S]GTPgammaS addition and measured after 90 mins (Rvb = 4 nM)
[5] = target: T2, C-C chemokine receptor type 2; test: Non-competitive insurmountable antagonist activity at human CCR2 expressed in human U2OS cell membranes assessed as pEC50 for CCL2-stimulated [35S]GTPgammaS binding at 100 nM preincubated for 30 mins followed by [35S]GTPgammaS addition and measured after 90 mins (Rvb = 8.10 +/- 0.06 No_unit)
[6] = target: T1, C-C chemokine receptor type 5; test: Non-competitive insurmountable antagonist activity at human CCR5 expressed in human U2OS cell membranes assessed as EC50 for CCL3-stimulated [35S]GTPgammaS binding at 300 nM preincubated for 30 mins followed by [35S]GTPgammaS addition and measured after 90 mins (Rvb = 4 nM)
[7] = target: T2, C-C chemokine receptor type 2; test: Non-competitive insurmountable antagonist activity at human CCR2 expressed in human U2OS cell membranes assessed as pEC50 for CCL2-stimulated [35S]GTPgammaS binding at 30 nM preincubated for 30 mins followed by [35S]GTPgammaS addition and measured after 90 mins (Rvb = 8.10 +/- 0.06 No_unit)
[8] = target: T1, C-C chemokine receptor type 5; test: Non-competitive insurmountable antagonist activity at human CCR5 expressed in human U2OS cell membranes assessed as EC50 for CCL3-stimulated [35S]GTPgammaS binding at 1000 nM preincubated for 30 mins followed by [35S]GTPgammaS addition and measured after 90 mins (Rvb = 4 nM)
[9] = target: T2, C-C chemokine receptor type 2; test: Non-competitive insurmountable antagonist activity at human CCR2 expressed in human U2OS cell membranes assessed as EC50 for CCL2-stimulated [35S]GTPgammaS binding at 10 nM preincubated for 30 mins followed by [35S]GTPgammaS addition and measured after 90 mins (Rvb = 8 nM)
[10] = target: T2, C-C chemokine receptor type 2; test: Antagonist activity at CCR2b in human THP1 cells assessed as inhibition of human MCP1 induced calcium flux by fluo-4 dye based fluorescence assay
[11] = target: T2, C-C chemokine receptor type 2; test: Displacement of [3H]-CCR2-RA-[R] from human CCR2 expressed in human U2OS cells incubated for 2 hrs by scintillation spectrometric method
[12] = target: T2, C-C chemokine receptor type 2; test: Non-competitive insurmountable antagonist activity at human CCR2 expressed in human U2OS cell membranes assessed as EC50 for CCL2-stimulated [35S]GTPgammaS binding at 1 nM preincubated for 30 mins followed by [35S]GTPgammaS addition and measured after 90 mins (Rvb = 8 nM)
[13] = target: T2, C-C chemokine receptor type 2; test: Non-competitive insurmountable antagonist activity at human CCR2 expressed in human U2OS cell membranes assessed as EC50 for CCL2-stimulated [35S]GTPgammaS binding at 3 nM preincubated for 30 mins followed by [35S]GTPgammaS addition and measured after 90 mins (Rvb = 8 nM)
[14] = target: T2, C-C chemokine receptor type 2; test: Non-competitive insurmountable antagonist activity at human CCR2 expressed in human U2OS cell membranes assessed as pEC50 for CCL2-stimulated [35S]GTPgammaS binding at 3 nM preincubated for 30 mins followed by [35S]GTPgammaS addition and measured after 90 mins (Rvb = 8.10 +/- 0.06 No_unit)
[15] = target: T1, C-C chemokine receptor type 5; test: Non-competitive insurmountable antagonist activity at human CCR5 expressed in human U2OS cell membranes assessed as pEC50 for CCL3-stimulated [35S]GTPgammaS binding at 30 nM preincubated for 30 mins followed by [35S]GTPgammaS addition and measured after 90 mins (Rvb = 8.42 +/- 0.06 No_unit)
[16] = target: T2, C-C chemokine receptor type 2; test: Non-competitive insurmountable antagonist activity at human CCR2 expressed in human U2OS cell membranes assessed as pEC50 for CCL2-stimulated [35S]GTPgammaS binding at 1 nM preincubated for 30 mins followed by [35S]GTPgammaS addition and measured after 90 mins (Rvb = 8.10 +/- 0.06 No_unit)

T1 sequence (P51681 whole entry): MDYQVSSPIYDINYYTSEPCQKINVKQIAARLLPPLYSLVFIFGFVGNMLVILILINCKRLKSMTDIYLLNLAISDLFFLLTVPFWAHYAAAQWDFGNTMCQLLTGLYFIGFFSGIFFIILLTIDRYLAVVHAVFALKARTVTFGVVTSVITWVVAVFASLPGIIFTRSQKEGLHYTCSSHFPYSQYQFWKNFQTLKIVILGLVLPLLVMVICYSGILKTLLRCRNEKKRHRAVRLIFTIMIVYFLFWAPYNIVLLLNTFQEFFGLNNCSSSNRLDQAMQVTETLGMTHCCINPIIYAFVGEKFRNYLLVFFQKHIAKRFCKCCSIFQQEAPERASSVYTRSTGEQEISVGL
T2 sequence (P41597 whole entry): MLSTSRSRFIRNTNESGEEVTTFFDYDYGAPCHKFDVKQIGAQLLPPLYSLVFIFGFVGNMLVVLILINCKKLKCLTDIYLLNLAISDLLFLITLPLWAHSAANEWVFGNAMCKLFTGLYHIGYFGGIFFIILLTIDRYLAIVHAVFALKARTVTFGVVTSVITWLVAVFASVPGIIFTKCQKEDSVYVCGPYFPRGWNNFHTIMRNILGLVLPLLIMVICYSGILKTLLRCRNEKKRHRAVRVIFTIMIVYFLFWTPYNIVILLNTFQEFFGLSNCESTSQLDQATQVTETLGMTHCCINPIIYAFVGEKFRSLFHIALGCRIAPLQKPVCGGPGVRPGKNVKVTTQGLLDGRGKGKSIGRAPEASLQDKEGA

Row | Compound | EC50 [1] | EC50 [2] | EC50 [3] | EC50 [4] | EC50 [6] | EC50 [9] | Ki [11] | further results
1 | CC(C)c1[nH]c2nc(N)nn2c(=O)c1Cc1cccc(Cl)c1Cl | 4.5 nM | 7.2 nM | 13 nM | 5.0 nM | 8.0 nM | 13 nM | – | EC50 [5]: 54 nM; EC50 [7]: 25 nM; EC50 [8]: 9.0 nM
2 | O=c1c(Cc2cccc(Cl)c2)c(C2CC2)[nH]c2ncnn12 | – | – | – | – | – | – | – | IC50 [10]: 16 nM
3 | Nc1nc2[nH]c(C3CC3)c(Cc3ccc(Cl)c(Cl)c3)c(=O)n2n1 | – | – | – | – | – | – | 0.447 nM | –
4 | CC(C)c1[nH]c2nc(N)nn2c(=O)c1Cc1ccc(Cl)c(Br)c1 | 6.2 nM | 8.9 nM | 135 nM | 6.0 nM | 9.0 nM | 148 nM | – | EC50 [12]: 13 nM; EC50 [13]: 32 nM; EC50 [14]: 30 nM; EC50 [15]: 5.0 nM; EC50 [16]: 12 nM

Further lines, with some results ahead:

Row | EC50 [1] | EC50 [2] | EC50 [3] | EC50 [4] | EC50 [6] | EC50 [9] | Ki [11] | Compound | further results
5 | – | – | – | – | – | – | 2.95 nM | Nc1nc2[nH]c(C3CC3)c(Cc3cccc(F)c3)c(=O)n2n1 | –
6 | – | – | – | – | – | – | 22.9 nM | Nc1nc2[nH]c(-c3ccccc3)c(Cc3cccc(Cl)c3)c(=O)n2n1 | –
